From patent US20250066388A1, “1,3,4,7-TETRAHYDRO-2H-PYRROLO[3',2':5,6]PYRIDO[2,3-B][1,4]OXAZEPINE BCL-2 INHIBITORS” (AbbVie Inc., priority 2022, published 2025)

Tests used:
[1] = system: RS4;11 cells; assay: Cell viability assay (CellTiter-Glo) in RS4;11 cells; assay type: cell-based; details: 24 hours, 10% Human Serum
Description: (§1) The acute lymphoblastic leukemia (ALL) human cell line RS4;11 (ATCC, Manassas VA) was used as the primary human cell line to assess the cellular activity of compound of the present Examples in vitro and their efficacy in vivo. […] The acute lymphoblastic leukemia cell line Molt-4, which is derived from immature T-lymphoid cells (T-ALL), was used as a counter screen assay.
(§2) 3000 Cells (0.1×10^6/mL) were seeded in each well of 384-well plate and were treated for 24 hours in a humidified chamber with 5% CO2. Cell viability was determined by CellTiter-Glo as described by the manufacturer's instructions (Promega Corporation, Madison, WI, USA).

[2] = system: Molt-4 cells; assay: Cell viability counter screen (CellTiter-Glo) in Molt-4 cells; assay type: cell-based; details: 24 hours, 10% Human Serum
Description: as §1, §2

[3] = target: Bcl-2 protein (Homo sapiens (Human), UniProt P10415); assay: TR-FRET binding assay, Bcl-2; details: F-Bak peptide probe, GST-Bcl-2
Description: (§3) Determination of the utility of compounds having Formula (I) or Formula (II) as binders to and inhibitors of anti-apoptotic Bcl-2 proteins was performed using the Time Resolved-Fluorescence Resonance Energy Transfer (TR-FRET) Assay. Tb-anti-GST antibody was purchased from Invitrogen (Catalog No. PV4216).
A Bcl-2 human encoding sequence was cloned into a pET41A vector (Novagen). The protein was expressed with E. coli. BL21(DE3)-T1R strain in OETB autoinduction medium at 30° C. for 25 hours. The cell pellets were resuspended in lysis buffer (50 mM Tris, 140 mM NaCl, 1 mM DTT, 10% Glycerol, 2 mM MgCl2, pH 7.3) and lysed with Microfluidizer. The Bcl-2 protein in clarified cell-lysate was purified with affinity chromatography (GST and Ni-NTA). The eluate was loaded onto a Superdex 75 column and further purified with a Q Sepharose column. The protein was purified on a phenyl hydrophobic interaction column and dialyzed in the storage buffer (50 mM Tris, 50 mM NaCl, 2 mM DTT, pH 7.5) and stored at −80° C.
(§4) […] of a protein (Bcl-2 or Bcl-xL)/probe/antibody mixture pre-equilibrated for one hour in assay buffer was added to each well at final concentrations listed in Table 6 below.
(§5) The samples were then mixed on a shaker for 1 minute and equilibrated for an additional 3 hours at room temperature. For each assay plate, a probe/antibody and protein/antibody/probe mixture were included as a negative and a positive control, respectively. Fluorescence was measured on the Envision (Perkin Elmer) using a 340/35 nm excitation filter and 520/525 (F-Bak) and 495/510 nm (Tb-labeled anti-GST antibody) emission filters. Inhibition constants (Ki) were determined using Wang's equation (Wang FEBS Lett. 1995, 360, 111-114). The TR-FRET assay can be performed in the presence of varying concentrations of human serum (HS) to determine apparent half maximal inhibitory concentration (IC50) after HS protein binding.
(§6) Inhibition constants were determined using Wang's equation (Wang FEBS Lett. 1995, 360:111-4).

[4] = target: Bcl-xL protein (Homo sapiens (Human), UniProt Q07817); assay: TR-FRET binding assay, Bcl-xL; details: F-Bak peptide probe
Description: as §3
A human Bcl-xL encoding sequence was cloned into a pET41A vector. The protein was expressed with E. coli. BL21(DE3)-T1R strain in OETB autoinduction medium at 30° C. for 25 hours. The cell pellets were resuspended in lysis buffer (50 mM Tris, 140 mM NaCl, 1 mM DTT, 10% Glycerol, 0.1% Triton X-100, pH 7.5) and lysed with Microfluidizer. The Bcl-xL protein in clarified cell-lysate was purified with GST affinity chromatography. The eluate was dialyzed in the storage buffer (1×PBS, 10% Glycerol, 2 mM DTT, 1 mM Sodium Azide, pH 7.4) and stored at −80° C.
as §4, §5, §6

Chain of Bcl-xL protein (Q07817 other isoform, or with tags, fused parts or gaps): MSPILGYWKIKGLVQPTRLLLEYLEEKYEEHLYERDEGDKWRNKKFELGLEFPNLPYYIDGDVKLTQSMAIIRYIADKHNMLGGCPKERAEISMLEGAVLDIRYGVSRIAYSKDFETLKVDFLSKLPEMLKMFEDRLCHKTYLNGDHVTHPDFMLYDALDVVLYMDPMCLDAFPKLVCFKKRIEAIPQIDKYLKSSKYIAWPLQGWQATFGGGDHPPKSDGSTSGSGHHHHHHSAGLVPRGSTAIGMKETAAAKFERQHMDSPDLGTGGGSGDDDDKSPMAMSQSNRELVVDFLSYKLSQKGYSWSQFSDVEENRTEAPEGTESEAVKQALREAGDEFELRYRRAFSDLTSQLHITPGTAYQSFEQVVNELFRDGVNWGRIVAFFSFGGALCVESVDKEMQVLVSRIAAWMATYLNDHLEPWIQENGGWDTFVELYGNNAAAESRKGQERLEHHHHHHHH
Chain of Bcl-2 protein (P10415 other isoform, or with tags, fused parts or gaps): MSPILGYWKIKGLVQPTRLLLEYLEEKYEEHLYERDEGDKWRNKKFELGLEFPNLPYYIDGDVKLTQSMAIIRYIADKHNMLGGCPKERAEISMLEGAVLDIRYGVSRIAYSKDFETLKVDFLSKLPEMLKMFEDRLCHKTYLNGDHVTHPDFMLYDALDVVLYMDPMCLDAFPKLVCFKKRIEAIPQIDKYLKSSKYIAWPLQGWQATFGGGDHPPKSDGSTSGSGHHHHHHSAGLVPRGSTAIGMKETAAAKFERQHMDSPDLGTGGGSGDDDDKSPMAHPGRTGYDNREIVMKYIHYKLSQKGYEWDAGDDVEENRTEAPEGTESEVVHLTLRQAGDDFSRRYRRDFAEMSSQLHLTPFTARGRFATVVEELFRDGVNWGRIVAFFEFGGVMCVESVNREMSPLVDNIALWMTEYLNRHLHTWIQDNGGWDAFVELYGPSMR

Structure (SMILES) | EC50 [1] [nM] | EC50 [2] [nM] | Ki [3] [nM] | Ki [4] [nM]
COC[C@]1(F)C[C@H](CNc2ccc(S(=O)(=O)NC(=O)c3ccc(N4CCN5CC6=C(c7ccc(Cl)cc7)CC(C)(C)C[C@H]6OCCCOC[C@@H]5C4)cc3N3CCCOc4nc5[nH]ccc5cc43)cc2[N+](=O)[O-])C1 [Example 47, 4-((4aS,10aR)-14-(4-chlorophenyl)-12,12-dimethyl-1,2,4a,5,8,9,10a,11,13,15-decahydro-7H,12H-benzo[f]pyrazino[2,1-c][1,8]dioxa[4]azacycloundecin-3(4H)-yl)-2-(3,4-dihydro-2H-pyrrolo[3′,2′:5,6]pyrido[2,3-b][1,4]oxazepin-1(7H)-yl)-N-((4-((((1r,3r)-3-fluoro-3-(methoxymethyl)cyclobutyl)methyl)amino)-3-nitrophenyl)sulfonyl)benzamide] | 10.9 | > 10000 |  | 
CC1(C)CC(c2ccc(Cl)cc2)=C2CN3CCN(c4ccc(C(=O)NS(=O)(=O)c5ccc(OC[C@H]6CC[C@](C)(O)CC6)c([N+](=O)[O-])c5)c(N5CCCOc6nc7[nH]ccc7cc65)c4)C[C@H]3COCCCO[C@@H]2C1 [Example 44, 4-((4aS,10aR)-14-(4-chlorophenyl)-12,12-dimethyl-1,2,4a,5,8,9,10a,11,13,15-decahydro-7H,12H-benzo[f]pyrazino[2,1-c][1,8]dioxa[4]azacycloundecin-3(4H)-yl)-2-(3,4-dihydro-2H-pyrrolo[3′,2′:5,6]pyrido[2,3-b][1,4]oxazepin-1(7H)-yl)-N-((4-(((1r,4r)-4-hydroxy-4-methylcyclohexyl)methoxy)-3-nitrophenyl)sulfonyl)benzamide] | 4.39 | 2270 |  | 
CC1(C)CC(c2ccc(Cl)cc2)=C2CN3CCN(c4ccc(C(=O)NS(=O)(=O)c5ccc(NCC6CCCCO6)c([N+](=O)[O-])c5)c(N5CCCOc6nc7[nH]ccc7cc65)c4)C[C@H]3COCCCO[C@@H]2C1 (stereo partly drawn) [Example 45, 4-((4aS,10aR)-14-(4-chlorophenyl)-12,12-dimethyl-1,2,4a,5,8,9,10a,11,13,15-decahydro-7H,12H-benzo[f]pyrazino[2,1-c][1,8]dioxa[4]azacycloundecin-3(4H)-yl)-2-(3,4-dihydro-2H-pyrrolo[3′,2′:5,6]pyrido[2,3-b][1,4]oxazepin-1(7H)-yl)-N-((3-nitro-4-(((tetrahydro-2H-pyran-2-yl)methyl)amino)phenyl)sulfonyl)benzamide] | 10.7 | > 10000 |  | 
CC1(C)CC(c2ccc(Cl)cc2)=C2CN3CCN(c4ccc(C(=O)NS(=O)(=O)c5ccc(NC[C@H]6COCCO6)c([N+](=O)[O-])c5)c(N5CCCOc6nc7[nH]ccc7cc65)c4)C[C@H]3COCCCO[C@@H]2C1 [Example 3, N-((4-((((S)-1,4-dioxan-2-yl)methyl)amino)-3-nitrophenyl)sulfonyl)-4-((4aS,10aR)-14-(4-chlorophenyl)-12,12-dimethyl-1,2,4a,5,8,9,10a,11,13,15-decahydro-7H,12H-benzo[f]pyrazino[2,1-c][1,8]dioxa[4]azacycloundecin-3(4H)-yl)-2-(3,4-dihydro-2H-pyrrolo[3′,2′:5,6]pyrido[2,3-b][1,4]oxazepin-1(7H)-yl)benzamide] | 1.36 | 1410 |  | 
CC1(C)CC(c2ccc(Cl)cc2)=C2CN3CCN(c4ccc(C(=O)NS(=O)(=O)c5ccc(OC[C@H]6CC[C@@](C)(O)CC6)c([N+](=O)[O-])c5)c(N5CCCOc6nc7[nH]ccc7cc65)c4)C[C@H]3COCCCO[C@@H]2C1 [Example 49, 4-((4aS,10aR)-14-(4-chlorophenyl)-12,12-dimethyl-1,2,4a,5,8,9,10a,11,13,15-decahydro-7H,12H-benzo[f]pyrazino[2,1-c][1,8]dioxa[4]azacycloundecin-3(4H)-yl)-2-(3,4-dihydro-2H-pyrrolo[3′,2′:5,6]pyrido[2,3-b][1,4]oxazepin-1(7H)-yl)-N-((4-(((1s,4s)-4-hydroxy-4-methylcyclohexyl)methoxy)-3-nitrophenyl)sulfonyl)benzamide] | 25 | 36 |  | 
COC1(CNc2ccc(S(=O)(=O)NC(=O)c3ccc(N4CCN5CC6=C(c7ccc(Cl)cc7)CC(C)(C)C[C@H]6OCCCOC[C@@H]5C4)cc3N3CCCOc4nc5[nH]ccc5cc43)cc2[N+](=O)[O-])CCOCC1 [Example 26, 4-((4aS,10aR)-14-(4-chlorophenyl)-12,12-dimethyl-1,2,4a,5,8,9,10a,11,13,15-decahydro-7H,12H-benzo[f]pyrazino[2,1-c][1,8]dioxa[4]azacycloundecin-3(4H)-yl)-2-(3,4-dihydro-2H-pyrrolo[3′,2′:5,6]pyrido[2,3-b][1,4]oxazepin-1(7H)-yl)-N-((4-(((4-methoxytetrahydro-2H-pyran-4-yl)methyl)amino)-3-nitrophenyl)sulfonyl)benzamide] |  | > 10000 | 2.09 | 40.3
CO[C@]1(CF)C[C@@H](CNc2ccc(S(=O)(=O)NC(=O)c3ccc(N4CCN5CC6=C(c7ccc(Cl)cc7)CC(C)(C)C[C@H]6OCCCOC[C@@H]5C4)cc3N3CCCOc4nc5[nH]ccc5cc43)cc2[N+](=O)[O-])C1 [Example 48, 4-((4aS,10aR)-14-(4-chlorophenyl)-12,12-dimethyl-1,2,4a,5,8,9,10a,11,13,15-decahydro-7H,12H-benzo[f]pyrazino[2,1-c][1,8]dioxa[4]azacycloundecin-3(4H)-yl)-2-(3,4-dihydro-2H-pyrrolo[3′,2′:5,6]pyrido[2,3-b][1,4]oxazepin-1(7H)-yl)-N-((4-((((1r,3r)-3-(fluoromethyl)-3-methoxycyclobutyl)methyl)amino)-3-nitrophenyl)sulfonyl)benzamide] | 18.1 | 5840 |  | 
C[C@@H]1CC[C@H](CNc2ccc(S(=O)(=O)NC(=O)c3ccc(N4CCN5CC6=C(c7ccc(Cl)cc7)CC(C)(C)C[C@H]6OCCCOC[C@@H]5C4)cc3N3CCCOc4nc5[nH]ccc5cc43)cc2[N+](=O)[O-])OC1 [Example 21, 4-((4aS,10aR)-14-(4-chlorophenyl)-12,12-dimethyl-1,2,4a,5,8,9,10a,11,13,15-decahydro-7H,12H-benzo[f]pyrazino[2,1-c][1,8]dioxa[4]azacycloundecin-3(4H)-yl)-2-(3,4-dihydro-2H-pyrrolo[3′,2′:5,6]pyrido[2,3-b][1,4]oxazepin-1(7H)-yl)-N-((4-((((2R,5R)-5-methyltetrahydro-2H-pyran-2-yl)methyl)amino)-3-nitrophenyl)sulfonyl)benzamide] | 4.89 | 3280 |  | 
CO[C@@H]1CC[C@@H](COc2ccc(S(=O)(=O)NC(=O)c3ccc(N4CCN5CC6=C(c7ccc(Cl)cc7)CC(C)(C)C[C@H]6OCCCOC[C@@H]5C4)cc3N3CCCOc4nc5[nH]ccc5cc43)cc2[N+](=O)[O-])OC1 [Example 51, 4-((4aS,10aR)-14-(4-chlorophenyl)-12,12-dimethyl-1,2,4a,5,8,9,10a,11,13,15-decahydro-7H,12H-benzo[f]pyrazino[2,1-c][1,8]dioxa[4]azacycloundecin-3(4H)-yl)-2-(3,4-dihydro-2H-pyrrolo[3′,2′:5,6]pyrido[2,3-b][1,4]oxazepin-1(7H)-yl)-N-((4-(((2S,5R)-5-methoxytetrahydro-2H-pyran-2-yl)methoxy)-3-nitrophenyl)sulfonyl)benzamide] | 9.6 | > 10000 |  | 
